Data taken from patent US9533977B2, “Oxazolidinone derivative as CETP inhibitor, its preparation method, and pharmaceutical composition comprising the same” (DONG-A ST CO., LTD., priority 2013, dated 2017).
pIC50: −log10 of the molar value.

Each molecule was assayed against T1, CETP (Homo sapiens, UniProt P11597) (assay: Inhibitory activity against CETP in human plasma (Roar CETP activity kit, fluorescence)). Conditions: plasma from healthy men diluted 1:10 in assay buffer, 37° C., 3 hrs, fluorescence 465/535 nm; read-out: IC50, Inhibition of CETP Activity in Human Plasma.
T1 construct: from tissue; host or cells: human plasma from healthy men
T1 sequence (P11597 18-493): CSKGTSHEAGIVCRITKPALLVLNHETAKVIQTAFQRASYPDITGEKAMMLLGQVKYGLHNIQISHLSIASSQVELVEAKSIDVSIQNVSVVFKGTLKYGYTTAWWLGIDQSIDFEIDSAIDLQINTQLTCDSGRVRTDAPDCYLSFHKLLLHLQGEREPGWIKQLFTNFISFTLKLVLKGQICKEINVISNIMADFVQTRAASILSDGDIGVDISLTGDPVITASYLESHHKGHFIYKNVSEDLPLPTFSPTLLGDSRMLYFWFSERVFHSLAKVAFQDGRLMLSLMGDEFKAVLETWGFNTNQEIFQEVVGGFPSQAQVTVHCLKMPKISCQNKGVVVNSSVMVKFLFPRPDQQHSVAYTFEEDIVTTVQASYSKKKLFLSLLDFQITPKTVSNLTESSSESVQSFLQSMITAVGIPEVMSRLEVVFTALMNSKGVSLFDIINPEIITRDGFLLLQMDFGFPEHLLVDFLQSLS
Format: biochemical
Method: A CETP activity kit (#RB-CETP) was purchased from Roar […], Inc. A donor and an acceptor (each, 4 ul), a 10× assay buffer (177 ul), and each of dilutions of test compounds in dimethylsulfoxide (DMSO, Sigma-Aldrich) (0.01 nM˜10000 nM) were added to each well of black round-bottom 96-well plates (Corning #3792). Plasma samples from healthy men were diluted in the assay buffer (1:10=plasma:assay buffer), and added to each well. The plates were sealed with a sealing film (Sigma-Aldrich, #Z369659), and incubated in a 37° C. incubator microplate shaker (#SLST-3, Seolin Bio) for 3 hrs. After removal of the sealing film, fluorescence was read on Spectra Max Gemini EM (Molecular devices) with an excitation wavelength of 465 nm and an emission wavelength of 535 nm. Measurements were calculated according to the following formula. Calculated value=(Fluorescence Intensity with both compound and plasma−Fluorescence Intensity with compound but without plasma)/(Fluorescence Intensity with plasma but without compound−Fluorescence Intensity with neither compound nor plasma)
From the calculated value, a sigmoidal curve (y=start+(end-start)x^n/k^n+x^n) was drawn using Origin Software (OriginLab Corporation, ver. 8.0724) to obtain IC50 values.

Row | Molecule | pIC50
1 | (4S,5R)-5-[3,5-bis(trifluoromethyl)phenyl]-4-methyl-3-({[2-(methyl)(cyclohexyl)amino]-5-(3,5-dimethyl-isoxazol-4-yl)pyrazin-3-yl}methyl)-oxazolidin-2-one [Example 95] | 8.42
2 | CCN(c1ncc(OS(C)(=O)=O)cc1CN1C(=O)O[C@H](c2cc(C(F)(F)F)cc(C(F)(F)F)c2)[C@@H]1C)C1CCCCC1 [Example 55, 5-{[(4S,5R)-5-[3,5-bis(trifluoromethyl)phenyl]-4-methyl-2-oxo-oxazolidin-3-yl]methyl}-6-[(cyclohexyl)(ethyl)amino]-pyridin-3-yl methanesulfonate] | 7.95
3 | CCN(c1ncc(C(F)(F)F)cc1CN1C(=O)O[C@H](c2cc(C(F)(F)F)cc(C(F)(F)F)c2)[C@@H]1C)C1CCN(CC(=O)OC)CC1 [Example 38, methyl 2-(4-{[3-({(4S,5R)-5-[3,5-bis(trifluoromethyl)phenyl]-4-methyl-2-oxo-oxazolidin-3-yl}methyl)-5-(trifluoromethyl)pyridin-2-yl](ethyl)amino}piperidin-1-yl)acetate] | 7.71
4 | CCN(C[C@H]1CC[C@H](CC(=O)O)CC1)c1ncc(-c2cc(C)cs2)nc1CN1C(=O)OC(c2cc(C(F)(F)F)cc(C(F)(F)F)c2)[C@@H]1C (stereo partly drawn) [Example 110] | 7.25
5 | CCN(c1ncc(C(F)(F)F)cc1CN1C(=O)O[C@H](c2cc(C(F)(F)F)cc(C(F)(F)F)c2)[C@@H]1C)C1CCC(CC(=O)OC)CC1 (stereo partly drawn) [Example 24, methyl 2-(4-{[3-({(4S,5R)-5-[3,5-bis(trifluoromethyl)phenyl]-4-methyl-2-oxo-oxazolidin-3-yl}methyl)-5-(trifluoromethyl)pyridin-2-yl](ethyl)amino}cyclohexyl)acetate] | 6.73
6 | CCN(c1ncc(C(F)(F)F)cc1CN1C(=O)O[C@H](c2cc(C(F)(F)F)cc(C(F)(F)F)c2)[C@@H]1C)C1CCOC1 (stereo partly drawn) [Example 2, (4S,5R)-5-[3,5-bis(trifluoromethyl)phenyl]-4-methyl-3-{(2-[ethyl(tetrahydrofuran-3-yl)amino]-5-(trifluoromethyl)pyridin-3-yl)methyl}-oxazolidin-2-one] | 6.84
7 | CCN(c1ncc(-c2cnn(C)c2)cc1CN1C(=O)O[C@H](c2cc(C(F)(F)F)cc(C(F)(F)F)c2)[C@@H]1C)C1CCCCC1 [Example 62, (4S,5R)-5-[3,5-bis(trifluoromethyl)phenyl]-4-methyl-3-({[2-(ethyl)(cyclohexyl)amino]-5-(1-methyl-1H-pyrazol-4-yl)pyridin-3-yl}methyl)-oxazolidin-2-one] | 6.82
8 | CCN(c1ncc(C(F)(F)F)cc1CN1C(=O)O[C@H](c2cc(C(F)(F)F)cc(C(F)(F)F)c2)[C@@H]1C)C1CCN(C)CC1 [Example 29, (4S,5R)-5-[3,5-bis(trifluoromethyl)phenyl]-4-methyl-3-({[2-(ethyl)(1-methylpiperidin-4-yl)amino]-5-(trifluoromethyl)pyridin-3-yl}methyl)-oxazolidin-2-one] | 6.27
9 | CCN(C[C@H]1CC[C@H](CC(=O)O)CC1)c1ncc(-c2cncc(F)c2)nc1CN1C(=O)OC(c2cc(C(F)(F)F)cc(C(F)(F)F)c2)[C@@H]1C (stereo partly drawn) [Example 120] | 7.61
10 | CCN(c1ncc(-c2cc(C(F)(F)F)nn2C)cc1CN1C(=O)O[C@H](c2cc(C(F)(F)F)cc(C(F)(F)F)c2)[C@@H]1C)C1CCCCC1 [Example 60, (4S,5R)-5-[3,5-bis(trifluoromethyl)phenyl]-4-methyl-3-({[2-(ethyl)(cyclohexyl-4-yl)amino]-5-(1-methyl-1H-3-(trifluoromethyl)-pyrazol-5-yl)pyridin-3-yl}methyl)-oxazolidin-2-one] | 7.46
11 | CCN(c1ncc(-c2ccsc2C#N)cc1CN1C(=O)O[C@@H](c2cc(C(F)(F)F)cc(C(F)(F)F)c2)[C@@H]1C)C1CCCCC1 [Example 82, 3-{5-({(4S,5S)-5-[3,5-bis(trifluoromethyl)phenyl]-4-methyl-2-oxo-oxazolidin-3-yl}methyl)-6-[(cyclohexyl)(ethyl)amino]pyridin-3-yl}-thiophene-2-carbonitrile] | 6.61
12 | (4S,5R)-5-[3,5-bis(trifluoromethyl)phenyl]-4-methyl-3-({[2-(ethyl)(cyclohexyl)amino]-5-(1,3-dimethyl-1H-pyrazol-4-yl)pyridin-3-yl}methyl)-oxazolidin-2-one [Example 69] | 7.87
13 | CCN(c1ncc(-c2c[nH]nc2C(F)(F)F)cc1CN1C(=O)O[C@H](c2cc(C(F)(F)F)cc(C(F)(F)F)c2)[C@@H]1C)C1CCCCC1 [Example 72, (4S,5R)-5-[3,5-bis(trifluoromethyl)phenyl]-4-methyl-3-({[2-(ethyl)(cyclohexyl)amino]-5-(3-(trifluoromethyl)-1H-pyrazol-4-yl)pyridin-3-yl}methyl)-oxazolidin-2-one] | 6.77
14 | CCN(c1ncc(C(F)(F)F)cc1CN1C(=O)O[C@H](c2cc(C(F)(F)F)cc(C(F)(F)F)c2)[C@@H]1C)C1CCCCC1 [Example 53, (4S,5R)-5-[3,5-bis(trifluoromethyl)phenyl]-4-methyl-3-({[2-(ethyl)(cyclohexyl)amino]-5-(trifluoromethyl)pyridin-3-yl}methyl)-oxazolidin-2-one] | 8.28

The remaining molecules from weak to strong by pIC50, led by results:

Row | pIC50 | Molecule
15 | 6.88 | CCOc1cccc(-c2cnc(N(CC)C3CCOCC3)c(CN3C(=O)O[C@H](c4cc(C(F)(F)F)cc(C(F)(F)F)c4)[C@@H]3C)c2)c1 [Example 48, (4S,5R)-5-[3,5-bis(trifluoromethyl)phenyl]-4-methyl-3-({[2-(ethyl)(tetrahydro-2H-pyran-4-yl)amino]-5-(3-ethoxyphenyl)pyridin-3-yl}methyl)-oxazolidin-2-one]
16 | 6.97 | CCCN1CCC(N(CC)c2ncc(C(F)(F)F)cc2CN2C(=O)O[C@H](c3cc(C(F)(F)F)cc(C(F)(F)F)c3)[C@@H]2C)CC1 [Example 31]
17 | 7.12 | CCN(c1ncc(F)cc1CN1C(=O)O[C@H](c2cc(C(F)(F)F)cc(C(F)(F)F)c2)[C@@H]1C)C1CCOCC1 [Example 16, (4S,5R)-5-[3,5-Bis(trifluoromethyl)phenyl]-4-methyl-3-({2-[ethyl(tetrahydro-2H-pyran-4-yl)amino]-5-fluoropyridin-3-yl}methyl)-oxazolidin-2-one]
18 | 7.53 | CCN(c1ncc(-c2c(C)nn(C)c2C)cc1CN1C(=O)O[C@H](c2cc(C(F)(F)F)cc(C(F)(F)F)c2)[C@@H]1C)C1CCCCC1 [Example 64, (4S,5R)-5-[3,5-bis(trifluoromethyl)phenyl]-3-({[2-(ethyl)(cyclohexyl)amino]-5-(1,3,5-trimethyl-1H-pyrazol-4-yl}pyridin-3-yl}methyl)-oxazolidin-2-one]
19 | 7.55 | CCN(c1ncc(-c2cccc(C)c2)cc1CN1C(=O)O[C@H](c2cc(C(F)(F)F)cc(C(F)(F)F)c2)[C@@H]1C)C1CCOCC1 [Example 46, (4S,5R)-5-[3,5-bis(trifluoromethyl)phenyl]-4-methyl-3-({[2-(ethyl)(tetrahydro-2H-pyran-4-yl)amino]-5-(3-methylphenyl)pyridin-3-yl}methyl)-oxazolidin-2-one]
20 | 7.70 | CCN(c1ncc(Br)cc1CN1C(=O)O[C@H](c2cc(C(F)(F)F)cc(C(F)(F)F)c2)[C@@H]1C)C1CCOCC1 [Example 40, (4S,5R)-5-[3,5-bis(trifluoromethyl)phenyl]-4-methyl-3-({[2-(ethyl)(tetrahydro-2H-pyran-4-yl)amino]-5-bromopyridin-3-yl}methyl)-oxazolidin-2-one]
21 | 7.77 | Cc1noc(C)c1-c1cnc(N(C)C[C@H]2CC[C@H](CC(=O)O)CC2)c(CN2C(=O)OC(c3cc(C(F)(F)F)cc(C(F)(F)F)c3)[C@@H]2C)n1 (stereo partly drawn) [Example 126]
22 | 7.79 | CCN(C[C@H]1CC[C@H](CC(=O)O)CC1)c1ncc(-c2cscn2)nc1CN1C(=O)OC(c2cc(C(F)(F)F)cc(C(F)(F)F)c2)[C@@H]1C (stereo partly drawn) [Example 113]
23 | 7.94 | (4S,5R)-5-[3,5-bis(trifluoromethyl)phenyl]-3-({[2-(cyclopropyl)(cyclohexyl)amino]-5-(3,5-dimethyl-isoxazol-4-yl)pyrazin-3-yl}methyl)-4-methyloxazolidin-2-one [Example 97]
24 | 8.00 | CCN(c1ncc(C(F)(F)F)cc1CN1C(=O)O[C@H](c2cc(C(F)(F)F)cc(C(F)(F)F)c2)[C@@H]1C)C1CCC(=O)CC1 [Example 22, (4S,5R)-5-[3,5-bis(trifluoromethyl)phenyl]-4-methyl-3-({[2-(ethyl)(4-oxocyclohexyl)amino]-5-(trifluoromethyl)pyridin-3-yl}methyl)-oxazolidin-2-one]
